Experimental data taken from PubChem BioAssay (NCI).
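Assay format: 96-well plates, 48-hour exposure. GI50 marks 50% less growth. TGI: concentration producing complete growth inhibition.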

Experiments:
Assay in all cases: DTP human tumour cell line panel, 48 h
786-0 renal = system: 786-0 renal
A498 renal = system: A498 renal
A549 NSCLC = system: A549 NSCLC
ACHN renal = system: ACHN renal
BT-549 breast = system: BT-549 breast
CAKI-1 renal = system: CAKI-1 renal
CCRF-CEM leukemia = system: CCRF-CEM leukemia
COLO 205 colon = system: COLO 205 colon
DU-145 prostate = system: DU-145 prostate
EKVX NSCLC = system: EKVX NSCLC
HCC-2998 colon = system: HCC-2998 colon
HCT-116 colon = system: HCT-116 colon
HCT-15 colon = system: HCT-15 colon
HOP-62 NSCLC = system: HOP-62 NSCLC
HOP-92 NSCLC = system: HOP-92 NSCLC
HS 578T breast = system: HS 578T breast
HT29 colon = system: HT29 colon
IGROV1 ovarian = system: IGROV1 ovarian
K-562 leukemia = system: K-562 leukemia
KM12 colon = system: KM12 colon
LOX IMVI melanoma = system: LOX IMVI melanoma
M14 melanoma = system: M14 melanoma
MALME-3M melanoma = system: MALME-3M melanoma
MDA-MB-231 breast = system: MDA-MB-231 breast
MDA-MB-435 = system: MDA-MB-435
MOLT-4 leukemia = system: MOLT-4 leukemia
NCI-H226 lung = system: NCI-H226 lung
NCI-H23 lung = system: NCI-H23 lung

## C=C1C(=O)O[C@H]2[C@H]1CC/C(COC(=O)NCc1c[nH]c3ccc(Br)cc13)=C\CC[C@@]1(C)O[C@@H]21
786-0 renal
  GI50: 841 nM
  TGI: 2360 nM
A498 renal
  GI50: 1670 nM
  TGI: 3250 nM
A549 NSCLC
  GI50: 1750 nM
  TGI: 3650 nM
ACHN renal
  GI50: 1280 nM
  TGI: 2580 nM
BT-549 breast
  GI50: 1290 nM
  TGI: 2920 nM
CAKI-1 renal
  GI50: 1510 nM
  TGI: 2940 nM
CCRF-CEM leukemia
  GI50: 315 nM
  TGI: 1580 nM
COLO 205 colon
  GI50: 884 nM
  TGI: 2320 nM
DU-145 prostate
  GI50: 1110 nM
  TGI: 2580 nM
EKVX NSCLC
  GI50: 1580 nM
  TGI: 3050 nM
HCC-2998 colon
  GI50: 1790 nM
  TGI: 3300 nM
HCT-116 colon
  GI50: 619 nM
  TGI: 1980 nM
HCT-15 colon
  GI50: 461 nM
  TGI: 1870 nM
HOP-62 NSCLC
  GI50: 1520 nM
  TGI: 3350 nM
HOP-92 NSCLC
  GI50: 1580 nM
  TGI: 3170 nM
HS 578T breast
  GI50: 2170 nM
  TGI: 7090 nM
HT29 colon
  GI50: 794 nM
  TGI: 2260 nM
IGROV1 ovarian
  GI50: 1450 nM
  TGI: 2970 nM
K-562 leukemia
  GI50: 292 nM
  TGI: 1530 nM
KM12 colon
  GI50: 2230 nM
  TGI: 5070 nM
LOX IMVI melanoma
  GI50: 701 nM
  TGI: 2050 nM
M14 melanoma
  GI50: 1350 nM
  TGI: 3070 nM
MALME-3M melanoma
  GI50: 1840 nM
  TGI: 3530 nM
MDA-MB-231 breast
  GI50: 1490 nM
  TGI: 3070 nM
MDA-MB-435
  GI50: 1120 nM
  TGI: 2550 nM
MOLT-4 leukemia
  GI50: 1700 nM
  TGI: 5510 nM
NCI-H226 lung
  GI50: 1550 nM
  TGI: 3070 nM
NCI-H23 lung
  GI50: 1660 nM
  TGI: 3350 nM
